Values of other authors as cited in paper PMC7315836 (Journal of medicinal chemistry, 2020).
pEC50, pIC50, pKi: −log10 of the molar value. Read-outs that look alike come from different tables or passages of the source.

Experiments:
[1] = acute toxicity, mice
furin = details: HEK293 cells
ACE2 [2] = molecular target: ACE2
ACE2 [3] = tested on: ACE2; remark: listed apart in the source
MERS-CoV [4] = details: mouse, in vivo
HCoV-OC43 [5] = details: 5 mg/kg
HCoV-229E [6] = details: HCoV-229E pseudovirus
HCoV-NL63 = HCoV-NL63 pseudovirus
HCoV-OC43 [7] = details: HCoV-OC43 pseudovirus
[8] = tested on: SARS-CoV-2 S-mediated membrane fusion; details: fusion inhibitory assay
SARS-CoV-2 [9] = details: SARS-CoV-2 pseudovirus assay
MERS-CoV [10] = tested on: MERS-CoV
MERS-CoV [11] = tested on: MERS-CoV; remark: listed apart in the source
SARS-CoV [12] = tested on: SARS-CoV
cathepsin L = cathepsin L inhibition assay
SARS-CoV [13] = tested on: SARS-CoV; remark: listed apart in the source
[14] = not given; remark: listed apart in the source
HCoV-229E [15] = tested on: HCoV-229E
MERS-CoV [16] = tested on: MERS-CoV; remark: listed apart in the source
ACE2 [17] = details: read-out: IC50, ACE2 catalytic activity
SARS-CoV [18] = tested on: SARS-CoV; remark: listed apart in the source
[19] = tested on: human aortic endothelial cells; details: 100 μM
[20] = molecular target: TACE (TNF-α converting enzyme); details: read-out: IC50, ACE2 shedding
TMPRSS2 = details: by inhibiting TMPRSS2 activity
SARS-CoV-2 [21] = tested on: SARS-CoV-2

## O=c1cc(-c2ccc(O)c(O)c2)oc2cc(O)cc(O)c12 [luteolin (13), luteolin]
[1]
  50% lethal dose: 232.2 mg/kg

## CC(C)(C)[C@H](NC(=O)[C@H](CCONC(=N)N)NC(=O)Cc1ccc(CNC(=N)N)cc1)C(=O)N[C@@H](CCONC(=N)N)C(=O)NCc1ccc(C(=N)N)cc1 [MI-1851 (24), MI-1851]
furin
  proteolytic processing of SARS-CoV-2 S protein by endogenous furin: could prevent proteolytic processing of the S protein

## DX600
ACE2 [2]
  pKi: 8.55
ACE2 [3]
  stability: chemically stable and not hydrolyzable by ACE2
ACE
  inhibition of ACE activity: did not inhibit ACE activity

## CCC[C@@H]([C@@H](CC(C)C)C(=O)N[C@@H](CCCCNC(=O)OCc1ccccc1)C(=O)Nc1nccs1)N(O)C=O [GW280264X (6), GW280264X]
ADAM17
  concentration reducing shedding of ACE2: 1 nM

## Teicoplanin
SARS-CoV-2 pseudoviruses
  pIC50: 5.78

## EK1
MERS-CoV [4]
  protection of mice against MERS-CoV infection: nearly completely protected
other
  cytotoxic concentration (not cytotoxic up to): > 1 mM
HCoV-OC43 [5]
  protection of mice from HCoV-OC43: nearly completely protected
HCoV-229E [6]
  pIC50: 5.47
HCoV-NL63
  pIC50: 5.22
HCoV-OC43 [7]
  pIC50: 5.74
[8]
  pIC50: 6.72
SARS-CoV-2 [9]
  pIC50: 5.62

## CN1CCN(CCOc2cc(OC3CCOCC3)c3c(Nc4c(Cl)ccc5c4OCO5)ncnc3c2)CC1 [saracatinib (30), saracatinib]
coronaviruses
  pIC50: 5.29 to 5.62
MERS-CoV [10]
  pIC50: 5.54

## COc1ccc(S(=O)(=O)O)cc1/N=N/c1c(S(=O)(=O)O)cc2cc(Nc3nc(Nc4ccccc4)nc(Nc4cc(C)c(/N=N/c5cc(S(=O)(=O)O)cc6cc(S(=O)(=O)O)cc(O)c56)cc4OC)n3)ccc2c1O [ADS-J1 (15), ADS-J1]
MERS-CoV [11]
  pIC50: 6.22
SARS-CoV [12]
  pIC50: 5.41
coronaviruses
  pIC50: 5.41 to 6.22

## CCc1ccccc1NC(=O)CSC(=O)NNC(=O)[C@H](Cc1c[nH]c2ccccc12)NC(=O)OC(C)(C)C [CID 16725315 (18), CID 16725315]
Cathepsin L
  pIC50: 7.25

## CCN(CC)CCCC(C)Nc1ccnc2cc(Cl)ccc12 (stereo not shown) [Chloroquine (4), Chloroquine]
coronaviruses
  pIC50: 5.36 to 5.95
SARS-CoV [13]
  ED50: 4400 nM
[14]
  toxicity that could be caused: ventricular arrhythmias,[72] QT prolongation,[72],[73] retinopathy,[74] and other cardiac-related toxicity

## CCN(CCO)CCCC(C)Nc1ccnc2cc(Cl)ccc12 (stereo not shown) [Hydroxychloroquine (5), Hydroxychloroquine]
[14]
  toxicity that could be caused: ventricular arrhythmias,[72] QT prolongation,[72],[73] retinopathy,[74] and other cardiac-related toxicity

## O=C(NC(Cc1ccccc1)C(=O)N1CCC(O)(c2ccc(Br)cc2)CC1)c1ccccc1 (stereo not shown) [K22 (2), K22]
HCoV-229E [15]
  pIC50: 6.15

## Cc1nc(Nc2ncc(C(=O)Nc3c(C)cccc3Cl)s2)cc(N2CCN(CCO)CC2)n1 [dasatinib (29), dasatinib]
MERS-CoV [16]
  pIC50: 5.27
coronaviruses
  pIC50: 5.27 to 5.68

## NCCNCCN1CC1 [NAAE (3), N-(2-amino-ethyl)-1 aziridine-ethanamine]
ACE2 [17]
  pIC50: 4.24

## MDL28170 [MDL28170 (17)]
SARS-CoV [18]
  pEC50: ~7.00

## O=C(OC[C@H]1O[C@@H](OC(=O)c2cc(O)c(O)c(O)c2)[C@H](OC(=O)c2cc(O)c(O)c(O)c2)[C@H](OC(=O)c2cc(O)c(O)c(O)c2)[C@@H]1O)c1cc(O)c(O)c(O)c1 [TGG (12), TGG]
[1]
  50% lethal dose: ~ 456 mg/kg

## CC(C)(C)OC(=O)N[C@@H](Cc1c[nH]c2ccccc12)C(=O)NNC(=O)OCC(=O)N1CCCc2ccccc21 [CID23631927 (19), CID 23631927]
[19]
  toxicity: did not show any sign of toxicity
Cathepsin L
  pIC50: 8.16

## CN1CCN(C(=O)N[C@@H](Cc2ccccc2)C(=O)N[C@H](/C=C/S(=O)(=O)c2ccccc2)CCc2ccccc2)CC1 [K11777 (21), K11777]
coronaviruses
  pIC50: 7.34 to 9.17

## CC(C)CC(CC(=O)NO)C(=O)NC(Cc1ccc2ccccc2c1)C(=O)NC(C)C(N)=O (stereo not shown) [TAPI-0 (7), TAPI-0]
[20]
  pIC50: 7.00

## CN(C)C(=O)COC(=O)Cc1ccc(OC(=O)c2ccc(NC(=N)N)cc2)cc1 [Camostat (22), Camostat]
TMPRSS2
  concentration preventing SARS-CoV infections: 10 µM
SARS-CoV-2 [21]
  viral entry of SARS-CoV-2: could prevent the viral entry of SARS-CoV-2
